Test systems include LOX IMVI; MOLT-4; HL-60; SNB-78; SF-268; NCI-H226; EKVX; RPMI-8226; A549; SN12C; SK-MEL-2; Malme-3M; 786-0; TK-10; SF-539; IGROV-1; CAKI-1; NCI/ADR-RES; MDA-N; Hs-578T.
Experiment in all cases: growth of human tumour cells (NCI), 48 h

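96-well plates; 48 h exposure; 5 concentrations. Endpoints by linear interpolation between flanking doses. Not reached: highest tested concentration assigned. GI50 = concentration required for 50% inhibition of growth.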 The source made the active and inactive calls. Rule as the data show it: active = GI50 up to about 1.1 µM and inactive = higher.

In the case of `O[C@]12c3ccccc3C1CCCC2N1CCOCC1` (stereo partly drawn), the GI50 in the experiment with LOX IMVI, with MOLT-4, in the experiment with HL-60, in the experiment on SNB-78, in the experiment with SF-268 and in the experiment on NCI-H226 was > 100 µM (inactive) each time. Moreover, the GI50 with EKVX, in the experiment with RPMI-8226, in the experiment with A549, in the experiment on SN12C, with SK-MEL-2 and in the experiment on Malme-3M was > 100 µM (inactive) each time. For the same molecule, the GI50 in the experiment with 786-0 and in the experiment with TK-10 was > 100 µM (inactive) throughout.
`Cc1ccc(S(=O)(=O)NC(=O)NC23CC4CC(CC(F)(C4)C2)C3)cc1`: the GI50 in the experiment with LOX IMVI, in the experiment on MOLT-4, in the experiment with SF-539, in the experiment on HL-60, in the experiment with SNB-78 and in the experiment on EKVX was > 100 µM (inactive) each time. The GI50 with RPMI-8226, in the experiment with A549, in the experiment with IGROV-1, in the experiment with SK-MEL-2, in the experiment on Malme-3M and with 786-0 was > 100 µM (inactive) each time. Moreover, the GI50 in the experiment with TK-10 was > 100 µM (inactive).
With `COc1cc(CC2c3cc(OC)c(OC)cc3CCN2C)ccc1O` (stereo not drawn), the GI50 in the experiment with MOLT-4, with SF-539, in the experiment on SNB-78, with SF-268, with EKVX and in the experiment with RPMI-8226 was > 100 µM (inactive) each time. Besides, the GI50 in the experiment with A549, in the experiment on SN12C, in the experiment on SK-MEL-2, in the experiment on CAKI-1, with Malme-3M and with 786-0 was > 100 µM (inactive) each time. The GI50 in the experiment with TK-10 was > 100 µM (inactive).
In the case of `CN(CCc1ccccn1)/[N+]([O-])=N/O.CNCCc1ccccn1`, the GI50 in the experiment on MOLT-4, with SF-539, in the experiment on HL-60, with SNB-78, in the experiment with SF-268 and in the experiment with NCI-H226 was > 100 µM (inactive) each time. The GI50 in the experiment on EKVX, with RPMI-8226, in the experiment with A549, in the experiment on SN12C, in the experiment on IGROV-1 and with SK-MEL-2 was > 100 µM (inactive) throughout. Also, the GI50 in the experiment with CAKI-1, with Malme-3M and in the experiment on 786-0 was > 100 µM (inactive) in each case.
Consider `CSc1n[n+]2c(s1)SCCC2`, for which the GI50 in the experiment on LOX IMVI is > 100 µM (inactive); in the experiment on MOLT-4, > 100 µM (inactive); in the experiment with SF-539 it was > 100 µM (inactive); in the experiment on HL-60 it was > 100 µM (inactive); in the experiment on SNB-78, > 100 µM (inactive); with SF-268, 80.2 µM (inactive). For the same molecule, the GI50 is 20.5 µM (inactive) in the experiment on A549; > 100 µM (inactive) in the experiment with SN12C; 25.8 µM (inactive) with IGROV-1; 31.9 µM (inactive) in the experiment on CAKI-1; > 100 µM (inactive) in the experiment on Malme-3M; > 100 µM (inactive) in the experiment on 786-0. For the same molecule, in the experiment with TK-10, the GI50 is > 100 µM (inactive).
On to `Clc1nncc2sc(-c3ccccc3)nc12`, for which the GI50 is 14.7 µM (inactive) in the experiment on LOX IMVI; 28.8 µM (inactive) in the experiment on MOLT-4; 27.5 µM (inactive) with SF-539; 4.14 µM (inactive) in the experiment on HL-60; 16.3 µM (inactive) in the experiment on SF-268; 23.2 µM (inactive) in the experiment with NCI/ADR-RES. Also, the GI50 in the experiment on NCI-H226 was 26 µM (inactive); with EKVX, 4.12 µM (inactive); in the experiment with RPMI-8226, 35.4 µM (inactive); in the experiment with A549 it was 53.8 µM (inactive); in the experiment on SN12C, 21 µM (inactive); with IGROV-1, 8.67 µM (inactive). The GI50 with MDA-N is 21.6 µM (inactive); in the experiment on SK-MEL-2 it was 16.4 µM (inactive); with CAKI-1, 0.2 µM (active); in the experiment on Malme-3M, 22.1 µM (inactive); in the experiment with 786-0, 85.9 µM (inactive); with TK-10, 40.9 µM (inactive). For the same molecule, the GI50 in the experiment on Hs-578T is 20.6 µM (inactive).
`c1ccc(C2=NOC(c3ccccc3)N2C23CC4CC(CC(C4)C2)C3)cc1` (stereo not drawn): the GI50 was > 10 µM (inactive) in the experiment on LOX IMVI; 9.53 µM (inactive) in the experiment on MOLT-4; > 10 µM (inactive) with SF-539; > 10 µM (inactive) in the experiment with HL-60; > 10 µM (inactive) with SF-268; > 10 µM (inactive) in the experiment with NCI/ADR-RES. For the same molecule, the GI50 with NCI-H226, in the experiment on EKVX, in the experiment with RPMI-8226, in the experiment with A549, with SN12C and with IGROV-1 was > 10 µM (inactive) each time. The GI50 in the experiment on MDA-N, in the experiment with SK-MEL-2, in the experiment with CAKI-1, in the experiment on Malme-3M, in the experiment on 786-0 and in the experiment on TK-10 was > 10 µM (inactive) in each case. Also, in the experiment on Hs-578T, the GI50 is > 10 µM (inactive).
Turning to `O=[N+]([O-])O` [NITRIC ACID], the GI50 in the experiment on LOX IMVI, in the experiment with MOLT-4, with SF-539, in the experiment on HL-60, in the experiment with SF-268 and with NCI/ADR-RES was > 100 µM (inactive) each time. In addition, the GI50 with NCI-H226, in the experiment with EKVX, with RPMI-8226, in the experiment with A549, with SN12C and in the experiment on IGROV-1 was > 100 µM (inactive) throughout. Further, the GI50 with MDA-N, with SK-MEL-2, in the experiment with CAKI-1, in the experiment on Malme-3M, in the experiment on 786-0 and in the experiment with TK-10 was > 100 µM (inactive) throughout. The GI50 in the experiment with Hs-578T was > 100 µM (inactive).
As for `CC(C)OP(=O)(OC(C)C)C(C(F)(F)F)C(F)(F)F`, the GI50 in the experiment on LOX IMVI, in the experiment on MOLT-4, in the experiment with SF-539, in the experiment with HL-60, in the experiment with SF-268 and in the experiment with NCI/ADR-RES was > 100 µM (inactive) each time. For the same molecule, the GI50 with NCI-H226, in the experiment with EKVX, with RPMI-8226, with A549, in the experiment with SN12C and in the experiment with IGROV-1 was > 100 µM (inactive) each time. Moreover, the GI50 with MDA-N, with SK-MEL-2, in the experiment on CAKI-1, in the experiment with Malme-3M, in the experiment on 786-0 and in the experiment on TK-10 was > 100 µM (inactive) each time. Moreover, the GI50 with Hs-578T is > 100 µM (inactive).
Consider `CSc1c([S+](C)[O-])c2ccccc2n1C` (stereo not drawn), for which the GI50 with LOX IMVI, in the experiment with MOLT-4, with SF-539, with HL-60, with SF-268 and in the experiment with NCI/ADR-RES was > 100 µM (inactive) each time. Further, the GI50 in the experiment with NCI-H226, with EKVX, with RPMI-8226, with A549, with SN12C and in the experiment on IGROV-1 was > 100 µM (inactive) in each case. The GI50 in the experiment with MDA-N, with SK-MEL-2, in the experiment on CAKI-1, in the experiment on Malme-3M, in the experiment on 786-0 and in the experiment on TK-10 was > 100 µM (inactive) each time. The GI50 with Hs-578T was > 100 µM (inactive).
Take `COC(=O)C(C(=O)C(=O)Nc1ccc(OC)cc1[N+](=O)[O-])c1nc2cc(C)c(C)cc2nc1O` (stereo not drawn): the GI50 with LOX IMVI, with SF-539, in the experiment with HL-60, in the experiment on SNB-78, in the experiment on SF-268 and in the experiment on NCI-H226 was > 100 µM (inactive) throughout. Besides, the GI50 in the experiment on EKVX is 74.6 µM (inactive); in the experiment with A549, > 100 µM (inactive); with SN12C, > 100 µM (inactive); in the experiment on IGROV-1, > 100 µM (inactive); in the experiment on CAKI-1, > 100 µM (inactive); in the experiment on Malme-3M, > 100 µM (inactive). In addition, the GI50 in the experiment with 786-0 and with TK-10 was > 100 µM (inactive) in each case.
For `CCCCCCCCCCCCCCCCOCC(CN(C)CCN(C)C)OCCCCCCCCCCCCCCCC` (stereo not drawn), the GI50 in the experiment on LOX IMVI, in the experiment on MOLT-4, with HL-60, in the experiment with SNB-78, in the experiment with SF-268 and in the experiment on NCI-H226 was > 100 µM (inactive) each time. For the same molecule, the GI50 with EKVX, with RPMI-8226, in the experiment on A549, in the experiment with SN12C, in the experiment on IGROV-1 and in the experiment on SK-MEL-2 was > 100 µM (inactive) in each case. The GI50 in the experiment with CAKI-1, in the experiment on Malme-3M, with 786-0 and with TK-10 was > 100 µM (inactive) throughout.
